# In patent US8916567B2, “Certain crystalline hydrates, pharmaceutical compositions thereof and methods for preparation and use thereof” (Universal Technology Alliance, Inc., priority 2009, dated 2014):
# Read-outs that look alike come from different tables or passages of the source.
# Legend:
# Format in all cases: cell-based
# Staphylococcus aureus = assay: Minimum inhibitory concentration (MIC) in vitro, agar dilution method, quality control strain; settings: Staphylococcus aureus, ATCC27853, strain S. AT C C25923 (Table 7 No. 1); read-out: MIC
# Source text: (§1) Hydrates Samples: • The 1/2 hydrates prepared according to Example 2; • Content (purity % wt): 99.0%; • The 1/12 hydrates prepared according to Example 253; • Content (purity % wt): 98.9%; • The 2/7 hydrates prepared according to Example 106; • Content (purity % wt): 98.8%; • The 2/5 hydrates prepared according to Example 162; • Content (purity % wt): 99.0%; • The 3/4 hydrates prepared according to Example 337; • Content (purity % wt): 98.8%; • Preparation: dissolved in DMSO, and further diluted with sterile distilled water to desired concentration. • The hydrates samples were supplied by Sichuan Beilike Biotechnology LTD.
# (§2) Anhydrous Sample: • The anhydrous compounds prepared according to Example 1. • Content (purity % wt): 98.6%; • Preparation: dissolved in DMSO, and further diluted with sterile distilled water to desired concentration; • The anhydrous sample was supplied by Sichuan Beilike Biotechnology LTD.
# (§3) Control Samples • Vancomycin: provided by Sichuan Beilike Biotechnology LTD, purchased from Eli Lilly Japan K.K. • Lot No.: WM16151 (production date: Apr. 10, 2007, expiration date: Apr. 9, 2009). • Specification: 500 mg/bottle; solubility (physicochemical properties): soluble in water. • Linezolid (LZ): provided by Sichuan Beilike Biotechnology LTD.
# (§4) Bacteria Strains • Clinically isolated strains: clinically isolated bacterial pathogens collected in Sichuan and Beijing areas from March 2007 to May 2008. • Species include: Staphylococcus aureus MRSA, Staphylococcus aureus MSSA, S. epidermidis MRSE, S. epidermidis MSSE, E. feacalis, and E. feacium, a total of 51 strains. • Quality control strains: Staphylococcus aureus […] strain kept in Sichuan Industrial Institute of Antibiotics, purchased from the medical testing center of the Ministry of Health, China.
# (§5) Experimental Method: • Measurement of the minimum inhibitory concentration (MIC) in vitro: • The minimum inhibitory concentration (MIC) of each test sample against test strains was measured by using the agar dilution method recommended by the U.S. National Committee for Clinical Laboratory Standards (CLSI/NCCIs).
# (§6) Based on the CLSI/NCCL's testing standard with respect to vancomycin and linezolid (see Table 6), the minimum inhibitory concentration (MIC) values of every strain were reported, and the MIC50 (the concentration that inhibits 50% of the different strains of bacteria), MIC90 (the concentration that inhibits 90% of the different strains of bacteria), and MICrange (the range of the MIC value of the tested strains) were observed.
# E. feacium = assay: Minimum inhibitory concentration (MIC) in vitro, agar dilution method
# Source text: as §1, §2, §3, §4, §5, §6
# S. epidermidis MSSE = assay: as above; settings: for MIC: read-out: MIC
# Source text: as §1, §2, §3, §4, §5, §6
# [1] = tested on: Staphylococcus aureus MRSA; assay: as above; settings: for MIC: read-out: MIC
# Source text: as §1, §2, §3, §4, §5, §6
# [2] = tested on: Staphylococcus aureus MSSA; assay: as above; settings: for MIC: read-out: MIC
# Source text: as §1, §2, §3, §4, §5, §6
# E. feacalis = assay: as above
# Source text: as §1, §2, §3, §4, §5, §6
# S. epidermidis MRSE = assay: as above; settings: for MIC: read-out: MIC
# Source text: as §1, §2, §3, §4, §5, §6
structure (smiles),measurement,setting,value
"CC(=O)NC[C@H]1CN(c2ccc(N3CCOCC3)c(F)c2)C(=O)O1 [Linezolid, reference compound]",MIC,Staphylococcus aureus,2 µg/mL
same,MIC50,E. feacium,2 µg/mL
same,MIC90,E. feacium,4 µg/mL
same,MICrange,"E. feacium; E. feacium (5 strains), clinically isolated",1 to 4 µg/mL
same,MIC,E. feacium; strain Efm 98 (Table 8 No. 21),1 µg/mL
same,MIC,E. feacium; strain Efm 171 (Table 8 No. 25),2 µg/mL
same,MIC,E. feacium; strain Efm 197 (Table 8 No. 22),2 µg/mL
same,MIC,E. feacium; strain Efm N3 (Table 8 No. 23),1 µg/mL
same,MIC,E. feacium; strain Efm N4 (Table 8 No. 24),4 µg/mL
same,MICrange,"S. epidermidis MSSE; S. ep MSSE (10 strains), clinically isolated",0.5 to 2 µg/mL
same,MIC50,"S. epidermidis MSSE; Staphylococcus epidermidis, S. ep MSSE (10 strains), clinically isolated, read-out: MIC50",1 µg/mL
same,MIC90,"S. epidermidis MSSE; Staphylococcus epidermidis, S. ep MSSE (10 strains), clinically isolated, read-out: MIC90",2 µg/mL
same,MIC,"S. epidermidis MSSE; Staphylococcus epidermidis, strain S. ep MSSE87 (Table 7 No. 23)",0.5 µg/mL
same,MIC,"S. epidermidis MSSE; Staphylococcus epidermidis, strain S. ep MSSE88 (Table 8 No. 5)",2 µg/mL
same,MIC,"S. epidermidis MSSE; Staphylococcus epidermidis, strain S. ep MSSE113 (Table 7 No. 24)",1 µg/mL
same,MIC,"S. epidermidis MSSE; Staphylococcus epidermidis, strain S. ep MSSE116 (Table 7 No. 25)",0.5 µg/mL
same,MIC,"S. epidermidis MSSE; Staphylococcus epidermidis, strain S. ep MSSE118 (Table 8 No. 2)",2 µg/mL
same,MIC,"S. epidermidis MSSE; Staphylococcus epidermidis, strain S. ep MSSE119 (Table 7 No. 27)",1 µg/mL
same,MIC,"S. epidermidis MSSE; Staphylococcus epidermidis, strain S. ep MSSE137 (Table 8 No. 4)",2 µg/mL
same,MIC,"S. epidermidis MSSE; Staphylococcus epidermidis, strain S. ep MSSE140 (Table 8 No. 3)",2 µg/mL
same,MIC,"S. epidermidis MSSE; Staphylococcus epidermidis, strain S. ep MSSE142 (Table 7 No. 26)",1 µg/mL
same,MIC,"S. epidermidis MSSE; Staphylococcus epidermidis, strain S. ep MSSE153 (Table 8 No. 1)",1 µg/mL
same,MICrange,"[1]; S. MRSA (10 strains), clinically isolated",1 to 2 µg/mL
same,MIC50,"[1]; Staphylococcus aureus, MRSA, S. MRSA (10 strains), clinically isolated, read-out: MIC50",2 µg/mL
same,MIC90,"[1]; Staphylococcus aureus, MRSA, S. MRSA (10 strains), clinically isolated, read-out: MIC90",2 µg/mL
same,MIC,"[1]; Staphylococcus aureus, MRSA, strain S. MRSA 29 (Table 7 No. 15)",1 µg/mL
same,MIC,"[1]; Staphylococcus aureus, MRSA, strain S. MRSA 101 (Table 7 No. 14)",1 µg/mL
same,MIC,"[1]; Staphylococcus aureus, MRSA, strain S. MRSA 201 (Table 7 No. 13)",2 µg/mL
same,MIC,"[1]; Staphylococcus aureus, MRSA, strain S. MRSA B27 (Table 7 No. 21)",2 µg/mL
same,MIC,"[1]; Staphylococcus aureus, MRSA, strain S. MRSA B105 (Table 7 No. 17)",2 µg/mL
same,MIC,"[1]; Staphylococcus aureus, MRSA, strain S. MRSA B143 (Table 7 No. 19)",1 µg/mL
same,MIC,"[1]; Staphylococcus aureus, MRSA, strain S. MRSA B151 (Table 7 No. 20)",2 µg/mL
same,MIC,"[1]; Staphylococcus aureus, MRSA, strain S. MRSA B164 (Table 7 No. 16)",2 µg/mL
same,MIC,"[1]; Staphylococcus aureus, MRSA, strain S. MRSA B199 (Table 7 No. 22)",2 µg/mL
same,MIC,"[1]; Staphylococcus aureus, MRSA, strain S. MRSA B617 (Table 7 No. 18)",1 µg/mL
same,MICrange,"[2]; S. MSSA (11 strains), clinically isolated",1 to 2 µg/mL
same,MIC50,"[2]; Staphylococcus aureus, MSSA, S. MSSA (11 strains), clinically isolated, read-out: MIC50",2 µg/mL
same,MIC90,"[2]; Staphylococcus aureus, MSSA, S. MSSA (11 strains), clinically isolated, read-out: MIC90",2 µg/mL
same,MIC,"[2]; Staphylococcus aureus, MSSA, strain S. MSSA 123 (Table 7 No. 3)",2 µg/mL
same,MIC,"[2]; Staphylococcus aureus, MSSA, strain S. MSSA 187 (Table 7 No. 7)",2 µg/mL
same,MIC,"[2]; Staphylococcus aureus, MSSA, strain S. MSSA 195 (Table 7 No. 6)",2 µg/mL
same,MIC,"[2]; Staphylococcus aureus, MSSA, strain S. MSSA 195 (Table 7 No. 12)",2 µg/mL
same,MIC,"[2]; Staphylococcus aureus, MSSA, strain S. MSSA 201 (Table 7 No. 11)",2 µg/mL
same,MIC,"[2]; Staphylococcus aureus, MSSA, strain S. MSSA 232 (Table 7 No. 2)",2 µg/mL
same,MIC,"[2]; Staphylococcus aureus, MSSA, strain S. MSSA 275 (Table 7 No. 10)",2 µg/mL
same,MIC,"[2]; Staphylococcus aureus, MSSA, strain S. MSSA 466 (Table 7 No. 8)",1 µg/mL
same,MIC,"[2]; Staphylococcus aureus, MSSA, strain S. MSSA 519 (Table 7 No. 9)",2 µg/mL
same,MIC,"[2]; Staphylococcus aureus, MSSA, strain S. MSSA 520 (Table 7 No. 4)",2 µg/mL
same,MIC,"[2]; Staphylococcus aureus, MSSA, strain S. MSSA 580 (Table 7 No. 5)",2 µg/mL
same,MIC50,E. feacalis,1 µg/mL
same,MIC90,E. feacalis,2 µg/mL
same,MICrange,"E. feacalis; E. feacalis (5 strains), clinically isolated",1 to 2 µg/mL
same,MIC,E. feacalis; strain Efa 54 (Table 8 No. 20),1 µg/mL
same,MIC,E. feacalis; strain Efa 116 (Table 8 No. 16),1 µg/mL
same,MIC,E. feacalis; strain Efa 907 (Table 8 No. 19),1 µg/mL
same,MIC,E. feacalis; strain Efa 3006 (Table 8 No. 18),1 µg/mL
same,MIC,E. feacalis; strain Efa 33748 (Table 8 No. 17),2 µg/mL
same,MICrange,"S. epidermidis MRSE; S. ep MRSE (10 strains), clinically isolated",0.5 to 2 µg/mL
same,MIC50,"S. epidermidis MRSE; Staphylococcus epidermidis, MRSE, S. ep MRSE (10 strains), clinically isolated, read-out: MIC50",1 µg/mL
same,MIC90,"S. epidermidis MRSE; Staphylococcus epidermidis, MRSE, S. ep MRSE (10 strains), clinically isolated, read-out: MIC90",2 µg/mL
same,MIC,"S. epidermidis MRSE; Staphylococcus epidermidis, MRSE, strain S. ep MRSE4 (Table 8 No. 9)",1 µg/mL
same,MIC,"S. epidermidis MRSE; Staphylococcus epidermidis, MRSE, strain S. ep MRSE20 (Table 8 No. 6)",1 µg/mL
same,MIC,"S. epidermidis MRSE; Staphylococcus epidermidis, MRSE, strain S. ep MRSE87 (Table 8 No. 13)",2 µg/mL
same,MIC,"S. epidermidis MRSE; Staphylococcus epidermidis, MRSE, strain S. ep MRSE90 (Table 8 No. 10)",2 µg/mL
same,MIC,"S. epidermidis MRSE; Staphylococcus epidermidis, MRSE, strain S. ep MRSE101 (Table 8 No. 7)",0.5 µg/mL
same,MIC,"S. epidermidis MRSE; Staphylococcus epidermidis, MRSE, strain S. ep MRSE105 (Table 8 No. 11)",1 µg/mL
same,MIC,"S. epidermidis MRSE; Staphylococcus epidermidis, MRSE, strain S. ep MRSE140 (Table 8 No. 14)",1 µg/mL
same,MIC,"S. epidermidis MRSE; Staphylococcus epidermidis, MRSE, strain S. ep MRSE142 (Table 8 No. 12)",1 µg/mL
same,MIC,"S. epidermidis MRSE; Staphylococcus epidermidis, MRSE, strain S. ep MRSE210 (Table 8 No. 15)",1 µg/mL
same,MIC,"S. epidermidis MRSE; Staphylococcus epidermidis, MRSE, strain S. ep MRSE211 (Table 8 No. 8)",1 µg/mL
